Source: US9833497B2, “Human originated EGF domain proteins and use of the same” (CHENGDU SOURCEBIO LIMITED-LIABILITY COMPANY, priority 2013, dated 2017)

Experiments:
Format in all cases: cell-based
E. coli DH5α = experiment: Antibacterial activity: MIC and growth curve against E. coli DH5α in 96-well plate; conditions: minimal inhibitory concentration against E. coli DH5α; 96-well plate, 5×10^5 CFU/mL, 37° C., judged after 8 h
Procedure, shortened: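 Log-phase DH5α (OD600 about 0.5, 37° C, 185 rpm in LB) was pelleted, resuspended in fresh LB and seeded at 5×10^5 CFU/mL with recombinant protein at 50, 25 and 12.5 μg/mL (two-fold series), in triplicate. Plates were shaken at 175 rpm, 37° C, and OD600 was read every 30 min. MIC was the lowest concentration with no growth.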

E. coli BL21 = experiment: MIC against Gram-negative bacteria: E. coli BL21; conditions: for MIC E. coli BL21 / MIC against E. coli BL21: 96-well plate, 37° C., 10 h
Procedure, shortened: (§1)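 Broth microdilution, LB medium, final inoculum 5×10^5 CFU/mL from McFarland 0.5 cultures. Recombinant human EGF domain proteins tested in two-fold steps, n=3. MIC: lowest concentration, no growth.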

Pseudomonas aeruginosa = experiment: MIC against Gram-negative bacteria: Pseudomonas aeruginosa; conditions: for MIC P. aeruginosa / MIC against P. aeruginosa: 96-well plate, 37° C., 10 h
Procedure, shortened: as §1

Klebsiella pneumonia = experiment: MIC against Gram-negative bacteria: Klebsiella pneumonia; conditions: for MIC K. pneumonia / MIC against K. pneumonia: 96-well plate, 37° C., 10 h
Procedure, shortened: as §1

Enterobacter cloacae = experiment: MIC against Gram-negative bacteria: Enterobacter cloacae; conditions: for MIC E. cloacae / MIC against E. cloacae: 96-well plate, 37° C., 10 h
Procedure, shortened: as §1

Aeromonas hydrophila = experiment: MIC against Gram-negative bacteria: Aeromonas hydrophila; conditions: for MIC A. hydrophila / MIC against A. hydrophila: 96-well plate, 37° C., 10 h
Procedure, shortened: as §1

Citrobacter diversus = experiment: MIC against Gram-negative bacteria: Citrobacter diversus; conditions: for MIC C. diversus / MIC against C. diversus: 96-well plate, 37° C., 10 h
Procedure, shortened: as §1

Moraxella catarrhalis = experiment: MIC against Gram-negative bacteria: Moraxella catarrhalis; conditions: for MIC M. catarrhalis / MIC against M. catarrhalis: 96-well plate, 37° C., 10 h
Procedure, shortened: as §1

Proteus mirabilis = experiment: MIC against Gram-negative bacteria: Proteus mirabilis; conditions: for MIC P. mirabilis / MIC against P. mirabilis: 96-well plate, 37° C., 10 h
Procedure, shortened: as §1

Proteus vulgaris = experiment: MIC against Gram-negative bacteria: Proteus vulgaris; conditions: for MIC P. vulgaris / MIC against P. vulgaris: 96-well plate, 37° C., 10 h
Procedure, shortened: as §1

Serratia marcescens = experiment: MIC against Gram-negative bacteria: Serratia marcescens; conditions: for MIC S. marcescens / MIC against S. marcescens: 96-well plate, 37° C., 10 h
Procedure, shortened: as §1

[1] = E. coli BL21, 10 h cultivation at 37° C.
[2] = P. aeruginosa, 10 h cultivation at 37° C.
[3] = K. pneumonia, 10 h cultivation at 37° C.
[4] = E. cloacae, 10 h cultivation at 37° C.
[5] = A. hydrophila, 10 h cultivation at 37° C.
[6] = C. diversus, 10 h cultivation at 37° C.
[7] = M. catarrhalis, 10 h cultivation at 37° C.
[8] = P. mirabilis, 10 h cultivation at 37° C.
[9] = P. vulgaris, 10 h cultivation at 37° C.
[10] = S. marcescens, 10 h cultivation at 37° C.

Substance	MIC (E. coli DH5α) [µg/mL]	MIC (E. coli BL21; [1]) [µg/mL]	MIC (Pseudomonas aeruginosa; [2]) [µg/mL]	MIC (Klebsiella pneumonia; [3]) [µg/mL]	MIC (Enterobacter cloacae; [4]) [µg/mL]	MIC (Aeromonas hydrophila; [5]) [µg/mL]	MIC (Citrobacter diversus; [6]) [µg/mL]	MIC (Moraxella catarrhalis; [7]) [µg/mL]	MIC (Proteus mirabilis; [8]) [µg/mL]	MIC (Proteus vulgaris; [9]) [µg/mL]	MIC (Serratia marcescens; [10]) [µg/mL]	other results
PRT1004 (LRPSCADSPCRNRATCQDSPQGPRCLCPTGYTGGSCQ; listed as Homo sapiens)	50	100	50	12.5	50	25	12.5	25	50	25	12.5	–
PRT654 (DVNECMGEEHCAPHGECLNSHGSFFCLCAPGFVSAEGGTSCQ; listed as Homo sapiens)	12.5	–	–	–	–	–	–	–	–	–	–	MIC E. coli BL21 (E. coli BL21; 5×10^5 CFU/mL): 50 µg/mL; MIC P. aeruginosa (Pseudomonas aeruginosa; 5×10^5 CFU/mL): 12.5 µg/mL; MIC K. pneumonia (Klebsiella pneumonia; 5×10^5 CFU/mL): 50 µg/mL; MIC E. cloacae (Enterobacter cloacae; 5×10^5 CFU/mL): 12.5 µg/mL; MIC A. hydrophila (Aeromonas hydrophila; 5×10^5 CFU/mL): 50 µg/mL; MIC C. diversus (Citrobacter diversus; 5×10^5 CFU/mL): 12.5 µg/mL; MIC M. catarrhalis (Moraxella catarrhalis; 5×10^5 CFU/mL): 50 µg/mL; MIC P. mirabilis (Proteus mirabilis; 5×10^5 CFU/mL): 25 µg/mL; MIC P. vulgaris (Proteus vulgaris; 5×10^5 CFU/mL): 12.5 µg/mL; MIC S. marcescens (Serratia marcescens; 5×10^5 CFU/mL): 25 µg/mL
PRT1003 (STDYCVSAPCFNGGTCVNRPGTFSCLCAMGFQGPRCE; listed as Homo sapiens)	50	12.5	25	50	25	25	12.5	25	50	25	12.5	–
PRT543 (CGCHEVGATGPTCEPFGGQCPCHAHVIGRDCSRCATGYWGFPNCRP; listed as Homo sapiens)	12.5	–	–	–	–	–	–	–	–	–	–	MIC against E. coli BL21 (E. coli BL21; 5×10^5 CFU/mL): 50 µg/mL; MIC against P. aeruginosa (Pseudomonas aeruginosa; 5×10^5 CFU/mL): 12.5 µg/mL; MIC against K. pneumonia (Klebsiella pneumonia; 5×10^5 CFU/mL): 50 µg/mL; MIC against E. cloacae (Enterobacter cloacae; 5×10^5 CFU/mL): 12.5 µg/mL; MIC against A. hydrophila (Aeromonas hydrophila; 5×10^5 CFU/mL): 50 µg/mL; MIC against C. diversus (Citrobacter diversus; 5×10^5 CFU/mL): 25 µg/mL; MIC against M. catarrhalis (Moraxella catarrhalis; 5×10^5 CFU/mL): 12.5 µg/mL; MIC against P. mirabilis (Proteus mirabilis; 5×10^5 CFU/mL): 25 µg/mL; MIC against P. vulgaris (Proteus vulgaris; 5×10^5 CFU/mL): 50 µg/mL; MIC against S. marcescens (Serratia marcescens; 5×10^5 CFU/mL): 25 µg/mL
PRT926 (EINECQSNPCVNNGQCVDKVNRFQCLCPPGFTGPVCQ; listed as Homo sapiens)	25	50	25	12.5	25	50	12.5	25	50	25	12.5	–
PRT1020 (SRQTCANNRHQCSVHAECRDYATGFCCSCVAGYTGNGRQCV; listed as Homo sapiens)	12.5	12.5	12.5	25	12.5	12.5	12.5	12.5	12.5	50	25	–
PRT612 (CPCPGGSSCAVVPKTKEVVCTNCPTGTTGKRCELCDDGYFGDPLGRNGPVRLCRL; listed as Homo sapiens)	25	–	–	–	–	–	–	–	–	–	–	MIC E. coli BL21 (E. coli BL21; 5×10^5 CFU/mL): 12.5 µg/mL; MIC P. aeruginosa (Pseudomonas aeruginosa; 5×10^5 CFU/mL): 25 µg/mL; MIC K. pneumonia (Klebsiella pneumonia; 5×10^5 CFU/mL): 50 µg/mL; MIC E. cloacae (Enterobacter cloacae; 5×10^5 CFU/mL): 25 µg/mL; MIC A. hydrophila (Aeromonas hydrophila; 5×10^5 CFU/mL): 12.5 µg/mL; MIC C. diversus (Citrobacter diversus; 5×10^5 CFU/mL): 25 µg/mL; MIC M. catarrhalis (Moraxella catarrhalis; 5×10^5 CFU/mL): 50 µg/mL; MIC P. mirabilis (Proteus mirabilis; 5×10^5 CFU/mL): 25 µg/mL; MIC P. vulgaris (Proteus vulgaris; 5×10^5 CFU/mL): 12.5 µg/mL; MIC S. marcescens (Serratia marcescens; 5×10^5 CFU/mL): 25 µg/mL
PRT516 (CNCSGLGSKNEDPCFGPCICKENVEGGDCSRCKSGFFNLQEDNWKGCDE; listed as Homo sapiens)	12.5	–	–	–	–	–	–	–	–	–	–	MIC against E. coli BL21 (E. coli BL21; 5×10^5 CFU/mL): 50 µg/mL; MIC against P. aeruginosa (Pseudomonas aeruginosa; 5×10^5 CFU/mL): 12.5 µg/mL; MIC against K. pneumonia (Klebsiella pneumonia; 5×10^5 CFU/mL): 50 µg/mL; MIC against E. cloacae (Enterobacter cloacae; 5×10^5 CFU/mL): 12.5 µg/mL; MIC against A. hydrophila (Aeromonas hydrophila; 5×10^5 CFU/mL): 25 µg/mL; MIC against C. diversus (Citrobacter diversus; 5×10^5 CFU/mL): 50 µg/mL; MIC against M. catarrhalis (Moraxella catarrhalis; 5×10^5 CFU/mL): 25 µg/mL; MIC against P. mirabilis (Proteus mirabilis; 5×10^5 CFU/mL): 12.5 µg/mL; MIC against P. vulgaris (Proteus vulgaris; 5×10^5 CFU/mL): 25 µg/mL; MIC against S. marcescens (Serratia marcescens; 5×10^5 CFU/mL): 50 µg/mL
PRT887 (LNDACISNPCNEGSNCDTNPVNGKAICTCPSGYTGPACS; listed as Homo sapiens)	12.5	–	–	–	–	–	–	–	–	–	–	MIC (μg/mL) E. coli BL21 (E. coli BL21; E. coli BL21, 10 h cultivation at 37° C., 5×10^5 CFU/mL): 25 µg/mL; MIC (μg/mL) P. aeruginosa (Pseudomonas aeruginosa; P. aeruginosa, 10 h cultivation at 37° C., 5×10^5 CFU/mL): 12.5 µg/mL; MIC (μg/mL) K. pneumonia (Klebsiella pneumonia; K. pneumonia, 10 h cultivation at 37° C., 5×10^5 CFU/mL): 25 µg/mL; MIC (μg/mL) E. cloacae (Enterobacter cloacae; E. cloacae, 10 h cultivation at 37° C., 5×10^5 CFU/mL): 50 µg/mL; MIC (μg/mL) A. hydrophila (Aeromonas hydrophila; A. hydrophila, 10 h cultivation at 37° C., 5×10^5 CFU/mL): 25 µg/mL; MIC (μg/mL) C. diversus (Citrobacter diversus; C. diversus, 10 h cultivation at 37° C., 5×10^5 CFU/mL): 12.5 µg/mL; MIC (μg/mL) M. catarrhalis (Moraxella catarrhalis; M. catarrhalis, 10 h cultivation at 37° C., 5×10^5 CFU/mL): 25 µg/mL; MIC (μg/mL) P. mirabilis (Proteus mirabilis; P. mirabilis, 10 h cultivation at 37° C., 5×10^5 CFU/mL): 50 µg/mL; MIC (μg/mL) P. vulgaris (Proteus vulgaris; P. vulgaris, 10 h cultivation at 37° C., 5×10^5 CFU/mL): 12.5 µg/mL; MIC (μg/mL) S. marcescens (Serratia marcescens; S. marcescens, 10 h cultivation at 37° C., 5×10^5 CFU/mL): 50 µg/mL
PRT1043 (HGPNCSQECRCHNGGLCDRFTGQCRCAPGYTGDRCR; listed as Homo sapiens)	50	12.5	25	50	25	25	50	25	12.5	50	50	–
PRT604 (CPCNRFAELCDPETGSCFNCGGFTTGRNCERCIDGYYGNPSSGQPCRP; listed as Homo sapiens)	50	–	–	–	–	–	–	–	–	–	–	MIC E. coli BL21 (E. coli BL21; 5×10^5 CFU/mL): 12.5 µg/mL; MIC P. aeruginosa (Pseudomonas aeruginosa; 5×10^5 CFU/mL): 25 µg/mL; MIC K. pneumonia (Klebsiella pneumonia; 5×10^5 CFU/mL): 50 µg/mL; MIC E. cloacae (Enterobacter cloacae; 5×10^5 CFU/mL): 25 µg/mL; MIC A. hydrophila (Aeromonas hydrophila; 5×10^5 CFU/mL): 12.5 µg/mL; MIC C. diversus (Citrobacter diversus; 5×10^5 CFU/mL): 25 µg/mL; MIC M. catarrhalis (Moraxella catarrhalis; 5×10^5 CFU/mL): 12.5 µg/mL; MIC P. mirabilis (Proteus mirabilis; 5×10^5 CFU/mL): 25 µg/mL; MIC P. vulgaris (Proteus vulgaris; 5×10^5 CFU/mL): 12.5 µg/mL; MIC S. marcescens (Serratia marcescens; 5×10^5 CFU/mL): 25 µg/mL
PRT1029 (PANPCEDGSHTCAPAGQARCVHHGGSTFSCACLPGYAGDGHQCT; listed as Homo sapiens)	12.5	12.5	50	12.5	50	12.5	50	12.5	50	12.5	50	–
